{
  "source": "patent US20260182571A1",
  "about": "“A ME[…] AND USE THEREOF” (I-TECH AB, priority 2022, published 2026)",
  "origin": "cited, not measured here",
  "conditions": "pH 7 and 20° C.",
  "data": [
    {"smiles": "On1ccccc1=S.On1ccccc1=S.[Cu]", "note": "[CuPT, copper (II) pyrithione]", "values": [
      {"measurement": "(equilibrium) water solubility", "value": "less than 0.039 mg/L"}
    ]}
  ]
}
